Key:
E1A cells = test: E1A-Bcl2 killing assay; assay type: cell-based
Procedure: (§1) Human anti-apoptotic Bcl-2 over-expressing epithelial cells (B23 cells) (Nguyen et al. (1994) J. Biol. Chem. 269 (24): 16521-24) were plated in 24-well plates at a density of about 80,000 cells per well and infected with 12S-adenovirus, which expresses the E1A oncogene (Nguyen et al. (1998) J. Biol. Chem. 273 (50): 33099-102). Normal human breast epithelial cells, MCF-7 breast cancer cells and MBA-MB231 breast cancer cells were plated in 24-well plates at a density of between 70,000-80,000 cells per well. After incubation at 37° C. for the indicated times in a 5% CO2 incubator, cells were harvested and cell death was monitored using a trypan blue assay as described in Ausubel et al. (1988) Current Protocols in Molecular Biology, Section 11.5.1 (Greene Publishing Associates and Intersciences, New York)).
IC50 values determined for these illustrative compounds in an E1A killing assay, using the materials and methods described above. These compounds have been described in Gerber et al. (1975), Critical Reviews in Microbiology, pp. 469-85.

B23 cells [1] = test: cells; assay type: cell-based, Human
Procedure: as §1
Normally, intracellular expression of an oncogene in cells results in apoptotic cell death. However, if anti-apoptotic Bcl-2 is over-expressed in these cells, they are protected from apoptosis. Therefore, an anti-cancer compound's activity can be monitored by measuring cell death in B23 cells in the presence of the E1A oncogene.

Bcl-2 = Bcl-2 (Homo sapiens, UniProt P10415); test: Anti-apoptotic:Pro-apoptotic binding assay, Bcl-2
[2] = system: MBA-MB231 breast cancer cells; test: cells; assay type: cell-based; conditions: 72 h, read-out: Cytotoxicity (% Dead Cells)
Procedure: as §1

Baby rat kidney cells = test: Transformation of baby rat kidney cells transfected with E1A oncogene and Bcl-2 (colony count); assay type: cell-based
Procedure: Baby rat kidney cells were transfected with RcRSV (Hartl et al. (1992) Cell Growth Differ. 3 (12): 909-18) expressing both E1A oncogene and anti-apoptotic Bcl-2 as described in (Lin et al. (1995) Mol. Cell. Biol. 15 (8): 4536-44). Transfected cells were then cultured (Lin et al. (1995) Mol. Cell. Biol. 15 (8): 4536-44) in the presence of varying concentrations of Butyl-meta-cycloheptylprodiginine for three weeks and the number of transformed cell colonies was counted.

Bcl-w = target: T1, Bcl-w (Homo sapiens, UniProt Q92843); test: Anti-apoptotic:Pro-apoptotic binding assay, Bcl-w
T1 sequence (Q92843 1-193): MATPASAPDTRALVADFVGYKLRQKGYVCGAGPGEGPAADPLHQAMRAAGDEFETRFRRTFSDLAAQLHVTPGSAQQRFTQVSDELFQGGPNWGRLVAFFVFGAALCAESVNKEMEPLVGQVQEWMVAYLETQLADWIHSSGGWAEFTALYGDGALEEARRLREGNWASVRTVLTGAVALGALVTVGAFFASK

[3] = system: Human oral epithelial carcinoma cells (KB cells); test: Apoptosis reinstatement in Bcl-2 over-expressing KB cells (trypan blue); assay type: cell-based
Procedure: Human oral epithelial carcinoma cells (KB cells) with and without stably expressed anti-apoptotic Bcl-2 were infected with 12S-adenovirus expressing the E1A oncogene, as described above in Example 6.1. Cell death was monitored 70 hours after infection using the trypan blue assay described above.

B23 cells [4] = assay type: cell-based, Human; conditions: B23 cells without E1A; data not shown
[5] = system: normal baby rat kidney cells; test: Susceptibility of normal baby rat kidney cells; assay type: cell-based; conditions: similar conditions; data not shown
Description: In the absence of anti-apoptotic Bcl-2, all baby rat kidney cells died within a few days (data not shown).

[6] = system: Normal human breast epithelial cells; test: Trypan blue cell death assay in normal human breast epithelial cells; assay type: cell-based; conditions: 1 μM
Procedure: as §1

[7] = as above; assay type: cell-based; conditions: human
Procedure: as §1

[8] = system: MCF-7 breast cancer cells; test: Trypan blue cell death assay in MCF-7 breast cancer cells; assay type: cell-based; conditions: Homo sapiens, MCF7, 72 h, read-out: Cytotoxicity (% Dead Cells)
Procedure: as §1

[9] = Homo sapiens, 72 h, read-out: Cytotoxicity (% Dead Cells)

Sequence of Bcl-2 (P10415 whole entry): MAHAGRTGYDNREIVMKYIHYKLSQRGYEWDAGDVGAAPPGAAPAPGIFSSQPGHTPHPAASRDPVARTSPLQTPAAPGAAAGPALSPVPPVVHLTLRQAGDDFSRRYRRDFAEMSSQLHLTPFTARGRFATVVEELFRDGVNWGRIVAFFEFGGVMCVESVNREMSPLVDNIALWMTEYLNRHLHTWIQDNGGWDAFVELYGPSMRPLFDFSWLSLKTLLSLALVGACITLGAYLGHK

`CCC1CCCCCCCCc2ccc([nH]2)/C=C2\N=C(C=C2OC)c2ccc1[nH]2` (stereo not shown) [Ethylcyclononylprodiginine, ethylcyclononyl-prodiginine] gave an inhibition at 5 µM (E1A cells; read-out: % inhibition at μM concentration, E1A-Bcl2 killing assay) of 20%, a cytotoxicity at 1 µM (B23 cells [1]; [9]) of 15% and a cytotoxicity at 5 µM (B23 cells [1]; [9]) of 20%. The inhibition at 510 µM (Bcl-2; at 510 μM, read-out: % inhibition at μM concentration, Anti-apoptotic:Pro-apoptotic binding assay Bcl-2) was 45%.
`CCCCC1CCCCCCc2cc1c(/C=C1\N=C(c3ccc[nH]3)C=C1OC)[nH]2` (stereo not shown) [Butyl-meta-cycloheptylprodiginine, butyl-meta-cycloheptylprodiginine] gave a cytotoxicity at 0.25 µM [2] of 64%, a cytotoxicity at 1 µM [2] of 100% and a cytotoxicity at 2 µM [2] of 100%. For the same compound, the “Apoptosis of transformed colonies” value (Baby rat kidney cells; baby rat kidney cells transformed with Bcl-2 and E1A) was “promoted apoptosis of the transformed colonies”, the “Number of transformed cell colonies (ability of Bcl-2 to transform cells in the presence of E1A)” value (Baby rat kidney cells; increasing concentrations, three weeks) was “significantly lowered the ability of anti-apoptotic Bcl-2 to transform cells” and the IC50 (Bcl-w) was 100 µM. For the same compound, the IC50 (E1A cells; read-out: IC50 (μM) E1A-Bcl2 killing assay) was 0.05 µM, the “Concentration able to inhibit Bcl-2 in B23 cells and re-establish the killing effect of the E1A oncogene” value (B23 cells [1]; B23 cells with E1A, concentrations as low as) was 0.25 µM and the cytotoxicity at 1 µM (B23 cells [1]; [9]) was 85%. For the same compound, the cytotoxicity at 2 µM (B23 cells [1]; [9]) was 95%, the cytotoxicity at 0.25 µM (B23 cells [1]; Homo sapiens, B23 cells, 0.25 μM, 72 h, read-out: Cytotoxicity (% Dead Cells)) was 75% and the “Apoptosis in uninfected KB cells” value ([3]; uninfected cells, same concentrations) was “no effect on apoptosis”. For the same compound, the “Apoptosis in E1A-infected Bcl-2 over-expressing KB cells” value ([3]; various concentrations, 70 hours after infection) was “reinstate apoptosis”, the “Effect on B23 cell death in the absence of E1A” value (B23 cells [4]) was “no significant effect” and the “Susceptibility of normal baby rat kidney cells” value [5] was “not susceptible”. For the same compound, the “Effect on normal human breast epithelial cells” value [6] was “not affected”, the cytotoxicity at 72 h, 0.25 µM [7] was 5% and the cytotoxicity at 72 h, 1 µM [7] was 5%. It also gave a cytotoxicity at 72 h, 2 µM [7] of 15%, a cytotoxicity at 0.25 µM [8] of 70% and a cytotoxicity at 1 µM [8] of 100%. For the same compound, the cytotoxicity at 2 µM [8] was 100% and the IC50 (Bcl-2) was 125 µM.
For Undecylprodiginine, the “% inhibition at μM concentration, E1A-Bcl2 killing assay” value (E1A cells; at 5 μM) was 25%; 5 μM, the “Cytotoxicity (% Dead Cells)” value (B23 cells [1]; B23 cells, 1.0 μM, 72 h) was 18% and the “Cytotoxicity (% Dead Cells)” value (B23 cells [1]; B23 cells, 5.0 μM, 72 h) was 25%. For the same compound, the “% inhibition at μM concentration, Anti-apoptotic:Pro-apoptotic binding assay Bcl-2” value (Bcl-2; at 500 μM) was 40%; 500 μM.

Reference: patent US20030119894A1, “Methods for treatment of cancer or neoplastic disease and for inhibiting growth of cancer cells and neoplastic cells” (Gemin X Biotechnologies Inc., priority 2001, published 2003)
